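1) Cells in 96-well plates. 2) Compound, 48 h, 5 concentrations. 3) Linear interpolation between surrounding doses. 4) Unreached endpoint = highest concentration. GI50 = concentration required for 50% inhibition of growth.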 Calls of active or inactive are those of the source. Rule as the data show it: active = GI50 up to about 1.1 µM and inactive = higher.
Assays:
Assay in all cases: NCI tumour cell line growth inhibition, 48 h
A498 = tested on: A498
A549 = tested on: A549
BT-549 = tested on: BT-549
DU-145 = tested on: DU-145
HCC 2998 = tested on: HCC 2998
HCT-116 = tested on: HCT-116
HOP-92 = tested on: HOP-92
IGROV-1 = tested on: IGROV-1
KM12 = tested on: KM12
LOX IMVI = tested on: LOX IMVI
NCI-H23 = tested on: NCI-H23
NCI/ADR-RES = tested on: NCI/ADR-RES
OVCAR-5 = tested on: OVCAR-5
OVCAR-8 = tested on: OVCAR-8
SF-539 = tested on: SF-539
SK-MEL-28 = tested on: SK-MEL-28
U-251 = tested on: U-251
UACC-257 = tested on: UACC-257
UO-31 = tested on: UO-31
Hs-578T = tested on: Hs-578T

Measured: GI50

COC(=O)C(=O)c1cc2ccccc2n1S(=O)(=O)c1ccccc1
inactive: A498 > 100 µM | A549 > 100 µM | BT-549 > 100 µM | DU-145 > 100 µM | HCC 2998 > 100 µM | HCT-116 > 100 µM | HOP-92 > 100 µM | IGROV-1 > 100 µM | KM12 > 100 µM | LOX IMVI > 100 µM | NCI-H23 > 100 µM | NCI/ADR-RES > 100 µM | OVCAR-5 > 100 µM | OVCAR-8 > 100 µM | SF-539 > 100 µM | SK-MEL-28 > 100 µM | U-251 > 100 µM | UACC-257 > 100 µM | UO-31 > 100 µM

Cc1ccc(Cc2nn(C)c(=O)n2N)cc1
inactive: A498 > 100 µM | A549 > 100 µM | BT-549 > 100 µM | DU-145 > 100 µM | HCC 2998 > 100 µM | HCT-116 > 100 µM | HOP-92 > 100 µM | IGROV-1 > 100 µM | KM12 > 100 µM | LOX IMVI > 100 µM | NCI-H23 > 100 µM | NCI/ADR-RES > 100 µM | OVCAR-5 > 100 µM | OVCAR-8 > 100 µM | SF-539 > 100 µM | SK-MEL-28 > 100 µM | U-251 > 100 µM | UACC-257 > 100 µM | UO-31 > 100 µM

COC(=O)c1sc2ncc3c(c2c1N)CCCCCC3
inactive: A498 > 100 µM | A549 > 100 µM | BT-549 > 100 µM | DU-145 > 100 µM | HCC 2998 > 100 µM | HCT-116 > 100 µM | HOP-92 > 100 µM | IGROV-1 > 100 µM | KM12 > 100 µM | LOX IMVI > 100 µM | NCI-H23 > 100 µM | NCI/ADR-RES > 100 µM | OVCAR-5 > 100 µM | OVCAR-8 > 100 µM | SF-539 > 100 µM | SK-MEL-28 > 100 µM | U-251 > 100 µM | UACC-257 > 100 µM | UO-31 > 100 µM

O=P(c1ccccc1)(c1ccccc1)c1ccc2c(c1)OCCOCCOCCOCCO2
inactive: A498 > 100 µM | A549 > 100 µM | BT-549 > 100 µM | DU-145 > 100 µM | HCC 2998 > 100 µM | HCT-116 > 100 µM | Hs-578T > 100 µM | IGROV-1 > 100 µM | KM12 > 100 µM | LOX IMVI > 100 µM | NCI-H23 > 100 µM | OVCAR-8 > 100 µM | SF-539 > 100 µM | SK-MEL-28 > 100 µM | UO-31 > 100 µM

CC1CC[C@@H](C(C)C)[C@H](Oc2nnc(C3OC(CO)C(O)C3O)o2)C1 (stereo not given in full)
inactive: A498 > 100 µM | A549 > 100 µM | BT-549 > 100 µM | DU-145 > 100 µM | HCC 2998 > 100 µM | HCT-116 > 100 µM | HOP-92 > 100 µM | KM12 > 100 µM | LOX IMVI > 100 µM | NCI-H23 > 100 µM | NCI/ADR-RES > 100 µM | OVCAR-5 > 100 µM | OVCAR-8 > 100 µM | SF-539 > 100 µM | U-251 > 100 µM | UACC-257 > 100 µM | UO-31 > 100 µM

CCCCCCCN1C(=O)C(O)(c2ccc(C3(O)C(=O)N(CCCCCCC)c4ccccc43)s2)c2ccccc21 (stereo not given)
inactive: BT-549 2.33 µM | DU-145 1.65 µM | HCC 2998 1.87 µM | HCT-116 1.73 µM | HOP-92 1.84 µM | Hs-578T 2.79 µM | IGROV-1 2.35 µM | KM12 1.8 µM | LOX IMVI 1.96 µM | OVCAR-5 1.68 µM | OVCAR-8 2.04 µM | SF-539 1.79 µM | SK-MEL-28 2.07 µM | U-251 1.74 µM | UACC-257 2.07 µM | UO-31 1.57 µM

From ChEMBL document CHEMBL1201862, “PubChem BioAssay data set” (2004)
